Among the data in patent publication US20210238176A1, “PESTICIDALLY-ACTIVE BICYCLIC HETEROAROMATIC COMPOUNDS” (SYNGENTA CROP PROTECTION AG, priority 2018, published 2021) are mortality values, retold here.

Common to all, as to assay type: in vivo
For experiment [1], the system named is Myzus persicae (Green Peach Aphid). The experiment is described as follows: Myzus persicae (green peach aphid) feeding/contact activity, sunflower leaf discs. The conditions noted are these: foliar, 144 h, application rate 200 ppm, aphid population of mixed ages, 6 days after infestation. Here is the method:
Myzus persicae (Green Peach Aphid): Feeding/Contact Activity
Sunflower leaf discs were placed onto agar in a 24-well microtiter plate and sprayed with aqueous test solutions prepared from 10,000 ppm DMSO stock solutions. After drying, the leaf discs were infested with an aphid population of mixed ages. The samples were assessed for mortality 6 days after infestation.

For experiment [2] the test system is unchanged. As to the kind of experiment: Myzus persicae intrinsic activity, sucrose solution under Parafilm. Conditions: 120 h, test rate 12 ppm, 5 days after infestation. An excerpt: Myzus persicae (Green Peach Aphid). Intrinsic Activity
Test compounds prepared from 10,000 ppm DMSO stock solutions were applied by pipette into 24-well microtiter plates and mixed with sucrose solution. The plates were closed with a stretched Parafilm. A plastic stencil with 24 holes was placed onto the plate and infested pea seedlings were placed directly on the Parafilm. The infested plate was closed with a gel blotting paper and another plastic stencil and then turned upside down. The samples were assessed for mortality 5 days after infestation.

Experiment [3] has the same test system. The experiment is described as follows: Myzus persicae systemic activity, pea seedling roots in test solution. Conditions: 144 h, test rate 24 ppm, systemic via pea seedling roots, 6 days. As to the method: Myzus persicae (Green Peach Aphid). Systemic Activity
Roots of pea seedlings infested with an aphid population of mixed ages were placed directly into aqueous test solutions prepared from 10,000 ppm DMSO stock solutions. The samples were assessed for mortality 6 days after placing seedlings into test solutions.

As usually defined, the mortality is the share of the test organisms that died. High values mean fewer survivors, low ones more survivors. `O=c1nc2n(Cc3ccc(Cl)nc3)cccc-2n1-c1cccc(-c2ccccc2)c1` [Compound A1, 4-[(6-chloro-3-pyridyl)methyl]-1-(3-phenylphenyl)imidazo[4,5-b]pyridin-2-one]: the mortality at 200 ppm in experiment [1] is at least 80%. Besides, the mortality at 12 ppm in experiment [2] is at least 80%.
For `O=c1nc2n(Cc3ccc(Cl)nc3)cccc-2n1-c1cnn(-c2ccccc2)c1` [Compound A5, 4-[(6-chloro-3-pyridyl)methyl]-1-(1-phenylpyrazol-4-yl)imidazo[4,5-b]pyridin-2-one], in experiment [1], the mortality at 200 ppm was at least 80%. The same compound showed a mortality at 12 ppm in experiment [2] of at least 80%.
In the case of `O=c1nc2n(Cc3ccc(Cl)nc3)cccc-2n1-c1cccc(Cl)c1` [Compound A6, 1-(3-chlorophenyl)-4-[(6-chloro-3-pyridyl)methyl]imidazo[4,5-b]pyridin-2-one], the mortality at 200 ppm in experiment [1] was at least 80%. This compound returned a mortality at 12 ppm in experiment [2] of at least 80%.
In experiment [1], `COc1cccc(-n2c3cccn(Cc4ccc(Cl)nc4)c-3nc2=O)c1` [Compound A7, 4-[(6-chloro-3-pyridyl)methyl]-1-(3-methoxyphenyl)imidazo[4,5-b]pyridin-2-one] showed a mortality at 200 ppm of at least 80%. The compound also returned a mortality at 12 ppm in experiment [2] of at least 80%.
In experiment [1], `COc1ccc(-n2c3cccn(Cc4ccc(Cl)nc4)c-3nc2=O)cc1` [Compound A8, 4-[(6-chloro-3-pyridyl)methyl]-1-(4-methoxyphenyl)imidazo[4,5-b]pyridin-2-one] yielded a mortality at 200 ppm of at least 80%. For the same compound, in experiment [2], the mortality at 12 ppm was at least 80%.
In experiment [1], `O=c1nc2n(Cc3ccc(Cl)nc3)cccc-2n1-c1ccc(Cl)cc1` [Compound A9, 1-(4-chlorophenyl)-4-[(6-chloro-3-pyridyl)methyl]imidazo[4,5-b]pyridin-2-one] showed a mortality at 200 ppm of at least 80%. The same compound registered a mortality at 12 ppm in experiment [2] of at least 80%.
Compound `N#Cc1ccc(-n2c3cccn(Cc4ccc(Cl)nc4)c-3nc2=O)cc1` [Compound A10, 4-[4-[(6-chloro-3-pyridyl)methyl]-2-oxo-imidazo[4,5-b]pyridin-1-yl]benzonitrile] registered a mortality at 200 ppm in experiment [1] of at least 80%. In experiment [2], this compound had a mortality at 12 ppm of at least 80%.
On to `N#Cc1cccc(-n2c3cccn(Cc4ccc(Cl)nc4)c-3nc2=O)c1` [Compound A11, 3-[4-[(6-chloro-3-pyridyl)methyl]-2-oxo-imidazo[4,5-b]pyridin-1-yl]benzonitrile], for which, in experiment [1], the mortality at 200 ppm was at least 80%. The compound also yielded a mortality at 12 ppm in experiment [2] of at least 80%.
`O=c1nc2n(Cc3ccc(Cl)nc3)cccc-2n1-c1ccnc(C(F)(F)F)c1` [Compound A14, 4-[(6-chloro-3-pyridyl)methyl]-1-[2-(trifluoromethyl)-4-pyridyl]imidazo[4,5-b]pyridin-2-one] registered a mortality at 200 ppm in experiment [1] of at least 80%. For the same compound, in experiment [2], the mortality at 12 ppm is at least 80%.
The compound `O=c1nc2n(Cc3ccc(Cl)nc3)cccc-2n1-c1cncnc1` [Compound A16, 4-[(6-chloro-3-pyridyl)methyl]-1-pyrimidin-5-yl-imidazo[4,5-b]pyridin-2-one] displayed a mortality at 24 ppm in experiment [3] of at least 80%. In addition, in experiment [2], the mortality at 12 ppm was at least 80%.
With `O=c1nc2n(Cc3ccc(Cl)nc3)cccc-2n1-c1cc(C(F)F)ccn1` [Compound A19, 4-[(6-chloro-3-pyridyl)methyl]-1-[4-(difluoromethyl)-2-pyridyl]imidazo[4,5-b]pyridin-2-one], in experiment [2], the mortality at 12 ppm is at least 80%.
In the case of `O=c1nc2n(Cc3ccc(Cl)nc3)cccc-2n1-c1cccc(C(F)(F)F)c1` [Compound A21, 4-[(6-chloro-3-pyridyl)methyl]-1-[3-(trifluoromethyl)phenyl]imidazo[4,5-b]pyridin-2-one], the mortality at 200 ppm in experiment [1] was at least 80%. In experiment [2], this compound registered a mortality at 12 ppm of at least 80%.
Consider `O=c1nc2n(Cc3ccc(Cl)nc3)cccc-2n1-c1cncc(Cl)c1` [Compound A22, 1-(5-chloro-3-pyridyl)-4-[(6-chloro-3-pyridyl)methyl]imidazo[4,5-b]pyridin-2-one], for which, in experiment [3], the mortality at 24 ppm is at least 80%. In addition, the mortality at 12 ppm in experiment [2] was at least 80%.
As for `O=c1nc2n(Cc3ccc(Cl)nc3)cccc-2n1-c1ncccn1` [Compound A23, 4-[(6-chloro-3-pyridyl)methyl]-1-pyrimidin-2-yl-imidazo[4,5-b]pyridin-2-one], the mortality at 200 ppm in experiment [1] was at least 80%.
In turn, `O=c1nc2n(Cc3ccc(Cl)nc3)cccc-2n1-c1ccc(C(F)(F)F)nc1` [Compound A24, 4-[(6-chloro-3-pyridyl)methyl]-1-[6-(trifluoromethyl)-3-pyridyl]imidazo[4,5-b]pyridin-2-one] showed a mortality at 24 ppm in experiment [3] of at least 80%. In experiment [2], this compound registered a mortality at 12 ppm of at least 80%.
On to `O=c1nc2n(Cc3ccc(Cl)nc3)cccc-2n1-c1ccccn1` [Compound A27, 4-[(6-chloro-3-pyridyl)methyl]-1-(2-pyridyl)imidazo[4,5-b]pyridin-2-one], for which the mortality at 24 ppm in experiment [3] was at least 80%. The compound also returned a mortality at 12 ppm in experiment [2] of at least 80%.
In experiment [1], `Cc1cccc(-n2c3cccn(Cc4ccc(Cl)nc4)c-3nc2=O)c1` [Compound A29, 4-[(6-chloro-3-pyridyl)methyl]-1-(m-tolyl)imidazo[4,5-b]pyridin-2-one] displayed a mortality at 200 ppm of at least 80%. The compound also returned a mortality at 12 ppm in experiment [2] of at least 80%.
Compound `O=c1nc2n(Cc3cnc(Cl)s3)cccc-2n1-c1ccccc1` [Compound A36, 4-[(2-chlorothiazol-5-yl)methyl]-1-phenyl-imidazo[4,5-b]pyridin-2-one] returned a mortality at 200 ppm in experiment [1] of at least 80%. This compound also registered a mortality at 12 ppm in experiment [2] of at least 80%.
Take `O=c1nc2n(Cc3ccc(Cl)nc3)cccc-2n1-c1ccccc1Cl` [Compound A38, 1-(2-chlorophenyl)-4-[(6-chloro-3-pyridyl)methyl]imidazo[4,5-b]pyridin-2-one]: the mortality at 200 ppm in experiment [1] is at least 80%. The compound also had a mortality at 12 ppm in experiment [2] of at least 80%.
In experiment [2], `O=c1nc2n(Cc3ccc(Cl)nc3)cccc-2n1-c1ccc(Cl)cc1Cl` [Compound A41, 4-[(6-chloro-3-pyridyl)methyl]-1-(2,4-dichlorophenyl)imidazo[4,5-b]pyridin-2-one] displayed a mortality at 12 ppm of at least 80%.
On to `O=c1nc2n(Cc3ccc(Cl)nc3)cccc-2n1-c1nccnc1C(F)(F)F` [Compound A42, 4-[(6-chloro-3-pyridyl)methyl]-1-[3-(trifluoromethyl)pyrazin-2-yl]imidazo[4,5-b]pyridin-2-one], for which, in experiment [1], the mortality at 200 ppm is at least 80%. The mortality at 12 ppm in experiment [2] is at least 80%.
For `O=c1nc2n(Cc3ccc(Cl)nc3)cccc-2n1-c1ccsc1` [Compound A47, 4-[(6-chloro-3-pyridyl)methyl]-1-(3-thienyl)imidazo[4,5-b]pyridin-2-one], the mortality at 12 ppm in experiment [2] was at least 80%.
Same read-out and setting: the result for `Cc1ccc(C)c(-n2c3cccn(Cc4ccc(Cl)nc4)c-3nc2=O)c1` [Compound A51, 4-[(6-chloro-3-pyridyl)methyl]-1-(2,5-dimethylphenyl)imidazo[4,5-b]pyridin-2-one] reads at least 80%.
For the compound `Cc1ccc(-n2c3cccn(Cc4ccc(Cl)nc4)c-3nc2=O)s1` [Compound A67, 4-[(6-chloro-3-pyridyl)methyl]-1-(5-methyl-2-thienyl)imidazo[4,5-b]pyridin-2-one], in experiment [1], the mortality at 200 ppm is at least 80%. The mortality at 12 ppm in experiment [2] was at least 80%.
Compound `O=c1nc2n(Cc3ccc(Cl)nc3)cccc-2n1-c1csc(C(F)F)c1` [Compound A68, 4-[(6-chloro-3-pyridyl)methyl]-1-[5-(difluoromethyl)-3-thienyl]imidazo[4,5-b]pyridin-2-one] gave a mortality at 12 ppm in experiment [2] of at least 80%.
`O=c1nc2n(Cc3ccc(Cl)nc3)cccc-2n1-c1csc(C(F)(F)F)c1` [Compound A71, 4-[(6-chloro-3-pyridyl)methyl]-1-[5-(trifluoromethyl)-3-thienyl]imidazo[4,5-b]pyridin-2-one] had a mortality at 12 ppm in experiment [2] of at least 80%.
Regarding `O=c1nc2n(Cc3ccc(Cl)nc3)cccc-2n1-c1cc(F)cs1` [Compound A73, 4-[(6-chloro-3-pyridyl)methyl]-1-(4-fluoro-2-thienyl)imidazo[4,5-b]pyridin-2-one], in experiment [2], the mortality at 12 ppm was at least 80%.
The same measure, in the same setting: the figure for `COC(=O)c1ccc(-n2c3cccn(Cc4ccc(Cl)nc4)c-3nc2=O)o1` [Compound A77, methyl 5-[4-[(6-chloro-3-pyridyl)methyl]-2-oxo-imidazo[4,5-b]pyridin-1-yl]furan-2-carboxylate] is at least 80%.
`O=c1nc2n(Cc3ccc(Cl)nc3)cccc-2n1-c1nnc(C2CC2)o1` [Compound A79, 4-[(6-chloro-3-pyridyl)methyl]-1-(5-cyclopropyl-1,3,4-oxadiazol-2-yl)imidazo[4,5-b]pyridin-2-one]: the mortality at 200 ppm in experiment [1] is at least 80%. The same compound yielded a mortality at 12 ppm in experiment [2] of at least 80%.
`O=c1nc2n(Cc3ccc(Cl)nc3)cccc-2n1-c1ccccc1C(F)(F)F` [Compound A81, 4-[(6-chloro-3-pyridyl)methyl]-1-[2-(trifluoromethyl)phenyl]imidazo[4,5-b]pyridin-2-one] came in with a mortality at 200 ppm in experiment [1] of at least 80%. In addition, the mortality at 12 ppm in experiment [2] was at least 80%.
For the compound `O=c1nc2n(Cc3ccc(Cl)nc3)cccc-2n1-c1cnn(C2COC2)c1` [Compound A87, 4-[(6-chloro-3-pyridyl)methyl]-1-[1-(oxetan-3-yl)pyrazol-4-yl]imidazo[4,5-b]pyridin-2-one], the mortality at 200 ppm in experiment [1] is at least 80%.
Turning to `CCn1nccc1-n1c2cccn(Cc3ccc(Cl)nc3)c-2nc1=O` [Compound A89, 4-[(6-chloro-3-pyridyl)methyl]-1-(2-ethylpyrazol-3-yl)imidazo[4,5-b]pyridin-2-one], in experiment [2], the mortality at 12 ppm is at least 80%.
